Measured values: patent EP4603105A1, “PHARMACEUTICAL COMPOSITION CONTAINING CYCLIC COMPOUND HAVING SELECTIVE KRAS INHIBITORY EFFECT AGAINST HRAS AND NRAS” (CHUGAI SEIYAKU KABUSHIKI KAISHA, priority 2022, dated 2024)

How the values were obtained:
[1] = molecular target: GDP-bound NRAS wild-type protein (Homo sapiens, UniProt P01111); assay: Binding to NRAS by surface plasmon resonance (SPR), KD and KD ratio to KRAS; details: ratio of the KD value with respect to GDP-bound NRAS wild-type protein to the KD value with respect to KRAS
GDP-bound NRAS wild-type protein, sequence (P01111 whole entry): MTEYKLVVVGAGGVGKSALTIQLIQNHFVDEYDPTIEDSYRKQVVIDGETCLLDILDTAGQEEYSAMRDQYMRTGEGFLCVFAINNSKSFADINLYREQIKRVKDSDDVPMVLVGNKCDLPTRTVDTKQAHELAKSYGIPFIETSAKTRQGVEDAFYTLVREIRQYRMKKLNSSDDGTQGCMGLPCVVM
Outline: (§1)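 Captured GDP-RAS (~100–300 RU) was exposed to increasing compound concentrations, 75 s per step, in running buffer with 10 µM GDP, 10 mM MgCl2 and 4% DMSO at pH 7.4.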

HRAS wild-type protein = HRAS wild-type protein (Homo sapiens, UniProt P01112); assay: Binding to HRAS by surface plasmon resonance (SPR), KD and KD ratio to KRAS; details: ratio of the KD value with respect to HRAS wild-type protein to the KD value with respect to KRAS
HRAS wild-type protein, sequence (P01112 whole entry): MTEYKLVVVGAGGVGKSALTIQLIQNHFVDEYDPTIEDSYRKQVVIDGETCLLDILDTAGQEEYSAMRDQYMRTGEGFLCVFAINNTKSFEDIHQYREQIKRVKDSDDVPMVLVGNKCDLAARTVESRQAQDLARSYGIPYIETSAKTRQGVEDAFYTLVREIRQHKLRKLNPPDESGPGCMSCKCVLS
Outline: as §1

[2] = system: human lung cancer strain NCI-H441; type: cell-based
Outline: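 Step one: dispense the test compound in serial DMSO dilutions. Step three: add the reagent and measure […].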

| Structure (SMILES) | NRAS /KRAS [1] | HRAS /KRAS (HRAS wild-type protein) | IC50 [2] [nM] |
| --- | --- | --- | --- |
| CC[C@H](C)[C@@H]1NC(=O)[C@H](CC(C)C)N(C)C(=O)C[C@@H](C(=O)N2CCOCC2)N(C)C(=O)[C@H](C2CCCC2)N(C)C(=O)C2(CCCC2)NC(=O)[C@@H]2CCCN2C(=O)[C@H](CCc2cc(F)c(C(F)(F)F)c(F)c2)NC(=O)CN(C)C(=O)[C@H](Cc2ccc(C(F)(F)F)cc2)N2CCCCC[C@@H](C2=O)N(C)C(=O)[C@@H]2CCN2C1=O [PP0484] | A (a compound having 10 or more and less than 20 is denoted as A) | B (a compound having 3 or more and less than 10 is denoted as B) | 165 |
| CC[C@H](C)[C@@H]1NC(=O)[C@H](CC(C)C)N(C)C(=O)C[C@@H](C(=O)N2CCOCC2)N(C)C(=O)[C@H](C2CCCC2)N(C)C(=O)C2(CCCC2)NC(=O)[C@@H]2CCCN2C(=O)[C@H](CCc2cc(F)c(C(F)(F)F)c(F)c2)NC(=O)CN(C)C(=O)[C@H](Cc2ccc(C(F)(F)F)cc2)N2CCCCC[C@@H](C2=O)N(C)C(=O)[C@@H]2CCCN2C1=O [PP0485] | A (a compound having 10 or more and less than 20 is denoted as A) | B (a compound having 3 or more and less than 10 is denoted as B) | 1260 |
| CC[C@H](C)[C@@H]1NC(=O)[C@H](C)N(C)C(=O)C[C@@H](C(=O)N2CCOCC2)N(C)C(=O)[C@H](C2CCCC2)N(C)C(=O)C2(CCCC2)NC(=O)[C@@H]2CCCN2C(=O)[C@H](CCc2cc(F)c(C(F)(F)F)c(F)c2)NC(=O)CN(C)C(=O)[C@H](Cc2ccc(C(F)(F)F)cc2)N2CCCCC[C@@H](C2=O)N(C)C(=O)CN(C)C1=O [PP0487] | B (a compound having 3 or more and less than 10 is denoted as B) | B (a compound having 3 or more and less than 10 is denoted as B) | 260 |
| CC[C@H](C)[C@@H]1NC(=O)[C@H](CC)N(C)C(=O)C[C@@H](C(=O)N2CCOCC2)N(C)C(=O)[C@H](C2CCCC2)N(C)C(=O)C2(CCCC2)NC(=O)[C@@H]2CCCN2C(=O)[C@H](CCc2cc(F)c(C(F)(F)F)c(F)c2)NC(=O)CN(C)C(=O)[C@H](Cc2ccc(C(F)(F)F)cc2)N2CCCCC[C@@H](C2=O)N(C)C(=O)CN(C)C1=O [PP0488] | A (a compound having 10 or more and less than 20 is denoted as A) | B (a compound having 3 or more and less than 10 is denoted as B) | 54.3 |
| CC[C@H](C)[C@@H]1NC(=O)[C@H](CC(C)C)N(C)C(=O)C[C@@H](C(=O)N2CCOCC2)N(C)C(=O)[C@H](C2CCCC2)N(C)C(=O)C2(CCCC2)NC(=O)[C@@H]2CCCN2C(=O)[C@H](CCc2cc(F)c(C(F)(F)F)c(F)c2)NC(=O)CN(C)C(=O)[C@H](Cc2ccc(C(F)(F)F)cc2)N2CCCCC[C@@H](C2=O)N(C)C(=O)CN(C)C1=O [PP0490] | B (a compound having 3 or more and less than 10 is denoted as B) | B (a compound having 3 or more and less than 10 is denoted as B) | 50.5 |
| CC[C@H](C)[C@@H]1NC(=O)[C@H](CC(C)C)N(C)C(=O)C[C@@H](C(=O)N2CCOCC2)N(C)C(=O)[C@H](C2CCCC2)N(C)C(=O)C2(CCCC2)NC(=O)[C@@H]2CC(F)(F)CN2C(=O)[C@H](CCc2cc(F)c(C(F)(F)F)c(F)c2)NC(=O)CN(C)C(=O)[C@H](Cc2ccc(C(F)(F)F)cc2)N2CCCCC[C@@H](C2=O)N(C)C(=O)CN(C)C1=O [PP0491] | B (a compound having 3 or more and less than 10 is denoted as B) | B (a compound having 3 or more and less than 10 is denoted as B) | 33.1 |
| CCO[C@@H]1C[C@H]2C(=O)NC3(CCCC3)C(=O)N(C)[C@@H](C3CCCC3)C(=O)N(C)[C@H](C(=O)N3CCOCC3)CC(=O)N(C)[C@@H](CC(C)C)C(=O)N[C@@H]([C@@H](C)CC)C(=O)N(C)CC(=O)N(C)[C@H]3CCCCCN(C3=O)[C@@H](Cc3ccc(C(F)(F)F)cc3)C(=O)N(C)CC(=O)N[C@@H](CCc3cc(F)c(C(F)(F)F)c(F)c3)C(=O)N2C1 [PP0492] | B (a compound having 3 or more and less than 10 is denoted as B) | B (a compound having 3 or more and less than 10 is denoted as B) | 31.9 |
| CC[C@H](C)[C@@H]1NC(=O)[C@H](CC(C)C)N(C)C(=O)C[C@@H](C(=O)N2CCOCC2)N(C)C(=O)[C@H](C2CCCC2)N(C)C(=O)C2(CCCC2)NC(=O)[C@@H]2CC(=O)CN2C(=O)[C@H](CCc2cc(F)c(C(F)(F)F)c(F)c2)NC(=O)CN(C)C(=O)[C@H](Cc2ccc(C(F)(F)F)cc2)N2CCCCC[C@@H](C2=O)N(C)C(=O)CN(C)C1=O [PP0493] | B (a compound having 3 or more and less than 10 is denoted as B) | B (a compound having 3 or more and less than 10 is denoted as B) | 628 |
| CC[C@H](C)[C@@H]1NC(=O)[C@H](CC(C)C)N(C)C(=O)C[C@@H](C(=O)N2CCOCC2)N(C)C(=O)[C@H](C2CCCC2)N(C)C(=O)C2(CCCC2)NC(=O)[C@@H]2C[C@H](OC)CN2C(=O)[C@H](CCc2cc(F)c(C(F)(F)F)c(F)c2)NC(=O)CN(C)C(=O)[C@H](Cc2ccc(C(F)(F)F)cc2)N2CCCCC[C@@H](C2=O)N(C)C(=O)CN(C)C1=O [PP0495] | A (a compound having 10 or more and less than 20 is denoted as A) | B (a compound having 3 or more and less than 10 is denoted as B) | 837 |
| CC[C@H](C)[C@@H]1NC(=O)[C@H](CC(C)C)N(C)C(=O)C[C@@H](C(=O)N2CCOCC2)N(C)C(=O)[C@H](C2CCCC2)N(C)C(=O)C2(CC2)NC(=O)[C@@H]2CCCN2C(=O)[C@H](CCc2cc(F)c(C(F)(F)F)c(F)c2)NC(=O)CN(C)C(=O)[C@H](Cc2ccc(C(F)(F)F)cc2)N2CCCCC[C@@H](C2=O)N(C)C(=O)CN(C)C1=O [PP0496] | B (a compound having 3 or more and less than 10 is denoted as B) | B (a compound having 3 or more and less than 10 is denoted as B) | 399 |
| CC[C@H](C)[C@@H]1NC(=O)[C@H](CC(C)C)N(C)C(=O)C[C@@H](C(=O)N2CCOCC2)N(C)C(=O)[C@H](C2CCCC2)N(C)C(=O)C2(CCC2)NC(=O)[C@@H]2CCCN2C(=O)[C@H](CCc2cc(F)c(C(F)(F)F)c(F)c2)NC(=O)CN(C)C(=O)[C@H](Cc2ccc(C(F)(F)F)cc2)N2CCCCC[C@@H](C2=O)N(C)C(=O)CN(C)C1=O [PP0497] | B (a compound having 3 or more and less than 10 is denoted as B) | B (a compound having 3 or more and less than 10 is denoted as B) | 44.2 |
| CC[C@H](C)[C@@H]1NC(=O)[C@H](CC(C)C)N(C)C(=O)C[C@@H](C(=O)N2CCOCC2)N(C)C(=O)[C@H](C2CCCC2)N(C)C(=O)C2(CCCCC2)NC(=O)[C@@H]2CCCN2C(=O)[C@H](CCc2cc(F)c(C(F)(F)F)c(F)c2)NC(=O)CN(C)C(=O)[C@H](Cc2ccc(C(F)(F)F)cc2)N2CCCCC[C@@H](C2=O)N(C)C(=O)CN(C)C1=O [PP0498] | B (a compound having 3 or more and less than 10 is denoted as B) | B (a compound having 3 or more and less than 10 is denoted as B) | 147 |
| CC[C@H](C)[C@@H]1NC(=O)[C@H](CC(C)C)N(C)C(=O)C[C@@H](C(=O)N2CCOCC2)N(C)C(=O)[C@H](C2CCCC2)N(C)C(=O)C2(CC(F)(F)C2)NC(=O)[C@@H]2CCCN2C(=O)[C@H](CCc2cc(F)c(C(F)(F)F)c(F)c2)NC(=O)CN(C)C(=O)[C@H](Cc2ccc(C(F)(F)F)cc2)N2CCCCC[C@@H](C2=O)N(C)C(=O)CN(C)C1=O [PP0499] | B (a compound having 3 or more and less than 10 is denoted as B) | B (a compound having 3 or more and less than 10 is denoted as B) | 44.9 |
| CC[C@H](C)[C@@H]1NC(=O)[C@H](CC(C)C)N(C)C(=O)C[C@@H](C(=O)N2CCOCC2)N(C)C(=O)[C@H](C2CCCC2)N(C)C(=O)C2(CCOCC2)NC(=O)[C@@H]2CCCN2C(=O)[C@H](CCc2cc(F)c(C(F)(F)F)c(F)c2)NC(=O)CN(C)C(=O)[C@H](Cc2ccc(C(F)(F)F)cc2)N2CCCCC[C@@H](C2=O)N(C)C(=O)CN(C)C1=O [PP0502] | A (a compound having 10 or more and less than 20 is denoted as A) | B (a compound having 3 or more and less than 10 is denoted as B) | 1820 |
| CC[C@H](C)[C@@H]1NC(=O)[C@H](CC(C)C)N(C)C(=O)C[C@@H](C(=O)N2CCOCC2)N(C)C(=O)[C@H](C2CCCC2)N(C)C(=O)C(C)(C)NC(=O)[C@@H]2CCCN2C(=O)[C@H](CCc2cc(F)c(C(F)(F)F)c(F)c2)NC(=O)CN(C)C(=O)[C@H](Cc2ccc(C(F)(F)F)cc2)N2CCCCC[C@@H](C2=O)N(C)C(=O)CN(C)C1=O [PP0503] | A (a compound having 10 or more and less than 20 is denoted as A) | B (a compound having 3 or more and less than 10 is denoted as B) | 283 |
| CC[C@H](C)[C@@H]1NC(=O)[C@H](CC(C)C)N(C)C(=O)C[C@@H](C(=O)N2CCOCC2)N(C)C(=O)[C@H](C2CCCCC2)N(C)C(=O)C2(CCCC2)NC(=O)[C@@H]2CCCN2C(=O)[C@H](CCc2cc(F)c(C(F)(F)F)c(F)c2)NC(=O)CN(C)C(=O)[C@H](Cc2ccc(C(F)(F)F)cc2)N2CCCCC[C@@H](C2=O)N(C)C(=O)CN(C)C1=O [PP0505] | B (a compound having 3 or more and less than 10 is denoted as B) | B (a compound having 3 or more and less than 10 is denoted as B) | 210 |
| CC[C@H](C)[C@@H]1NC(=O)[C@H](CC(C)C)N(C)C(=O)C[C@@H](C(=O)N2CCOCC2)N(C)C(=O)[C@H](CC(F)(F)F)N(C)C(=O)C2(CCCC2)NC(=O)[C@@H]2CCCN2C(=O)[C@H](CCc2cc(F)c(C(F)(F)F)c(F)c2)NC(=O)CN(C)C(=O)[C@H](Cc2ccc(C(F)(F)F)cc2)N2CCCCC[C@@H](C2=O)N(C)C(=O)CN(C)C1=O [PP0506] | B (a compound having 3 or more and less than 10 is denoted as B) | B (a compound having 3 or more and less than 10 is denoted as B) | 705 |
